# Source: patent US4973603A, “Platelet activating factor antagonist and methods of use therefor” (priority 1989, dated 1990)
# System: platelet activating factor (PAF)
# Assay: PAF Induced Paw Edema in the Mouse
# Type: in vivo, mouse (Charles River CD-1, female)
# Conditions: for % Inhibition of Edema: 1 hour before PAF (1 ug/paw), 15 min after PAF
# Method: The experimental procedure was adapted from Calhoun et al., Agents & Actions, 21:306-309 (1987). Charles River CD-1 female mice (20-25 G) were given a dose of Formula I, or phenidone, using peanut oil as a carrier. Control mice were given doses of the carrier alone. The drugs were administered orally in a 50 μl volume of peanut oil. One hour later, 1.0 μg of PAF dissolved in 50 μl of 5% ethanol-saline was injected subcutaneously into the plantar surface of the right hind paw. The volume of this injected foot to the level of the lateral malleous was measured by water displacement immediately before drug administration and again 15 minutes after PAF injection.
# The effectiveness of each compound was analyzed in the following manner. The individual paw volumes were compared by a paired t test analysis in which predrug paw volumes were compared to paw volumes 15 minutes after PAF injection to determine the level of statistical significance. The percent inhibition of edema volume was obtained from the ratio of the mean predrug volume to the mean volume after PAF.
smiles,measurement,setting,value
"CCCCCc1cc(O)c2c(c1)OC(C)(C)C1CC=C(C(=O)O)CC21 (stereo not shown) [Formula I, 6a,7,10,10a-tetrahydro-6,6-dimethyl-9-carboxyl-3-pentyl-6H-dibenzo[b,d]pyran-1-ol]",% Inhibition of Edema,10 mg/kg oral,21.8%
same,% Inhibition of Edema,20 mg/kg oral,50.2%
same,% Inhibition of Edema,40 mg/kg oral,46.2%
same,antagonism of inflammatory actions of PAF (in words),"mouse paw edema, oral",effective antagonist to the inflammatory actions of PAF
